Results as given in PMC8766756, “Insights on Cancer Cell Inhibition, Subcellular Activities, and Kinase Profile of Phenylacetamides Pending 1H-Imidazol-5-One Variants” (Frontiers in Pharmacology, 2022).
Several values for one entry are separate records, joined by “and”; a condition that tells them apart may be missing. Equal values may be shown once.

Legend:
Test in all cases: PamChip tyrosine kinase microarray
Type in all cases: biochemical
Settings in all cases: 0.1 µM, HL60 lysate
Yes (P07947) = molecular target: T1, Yes (P07947) (Homo sapiens, UniProt P07947)
T1 construct: purchased PamGene (PamChip PTK array, Upstream Kinase Analysis)
T1 sequence (P07947 whole entry): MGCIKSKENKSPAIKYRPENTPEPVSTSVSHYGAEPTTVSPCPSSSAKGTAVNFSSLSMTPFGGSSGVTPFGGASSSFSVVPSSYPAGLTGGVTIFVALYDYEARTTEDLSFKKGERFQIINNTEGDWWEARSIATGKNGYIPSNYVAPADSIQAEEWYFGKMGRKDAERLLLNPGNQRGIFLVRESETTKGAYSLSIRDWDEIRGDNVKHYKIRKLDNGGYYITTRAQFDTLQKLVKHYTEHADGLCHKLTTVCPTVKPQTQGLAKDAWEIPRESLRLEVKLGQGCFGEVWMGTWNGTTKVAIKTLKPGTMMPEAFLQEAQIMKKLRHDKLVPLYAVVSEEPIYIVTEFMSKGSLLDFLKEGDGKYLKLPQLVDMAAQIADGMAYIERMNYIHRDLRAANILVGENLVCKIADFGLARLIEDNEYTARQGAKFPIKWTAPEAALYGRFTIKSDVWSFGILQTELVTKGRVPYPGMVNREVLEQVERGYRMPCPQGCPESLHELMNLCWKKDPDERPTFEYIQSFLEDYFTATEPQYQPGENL
Procedure, shortened: (§1)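 HL60 (AML) cell lysate was spiked with compound at 0.001, 0.01, 0.1, 1, 10 and 50 µM, or 2% v/v DMSO as control, then profiled in technical replicates on a tyrosine kinase peptide array of 196 phosphosites. Kinase activity was inferred from peptide-set changes using an upstream kinase tool.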

HER3 (P21860) = molecular target: T2, HER3 (P21860) (Homo sapiens, UniProt P21860)
T2 construct: purchased PamGene (PamChip PTK array, Upstream Kinase Analysis)
T2 sequence (P21860 20-1342): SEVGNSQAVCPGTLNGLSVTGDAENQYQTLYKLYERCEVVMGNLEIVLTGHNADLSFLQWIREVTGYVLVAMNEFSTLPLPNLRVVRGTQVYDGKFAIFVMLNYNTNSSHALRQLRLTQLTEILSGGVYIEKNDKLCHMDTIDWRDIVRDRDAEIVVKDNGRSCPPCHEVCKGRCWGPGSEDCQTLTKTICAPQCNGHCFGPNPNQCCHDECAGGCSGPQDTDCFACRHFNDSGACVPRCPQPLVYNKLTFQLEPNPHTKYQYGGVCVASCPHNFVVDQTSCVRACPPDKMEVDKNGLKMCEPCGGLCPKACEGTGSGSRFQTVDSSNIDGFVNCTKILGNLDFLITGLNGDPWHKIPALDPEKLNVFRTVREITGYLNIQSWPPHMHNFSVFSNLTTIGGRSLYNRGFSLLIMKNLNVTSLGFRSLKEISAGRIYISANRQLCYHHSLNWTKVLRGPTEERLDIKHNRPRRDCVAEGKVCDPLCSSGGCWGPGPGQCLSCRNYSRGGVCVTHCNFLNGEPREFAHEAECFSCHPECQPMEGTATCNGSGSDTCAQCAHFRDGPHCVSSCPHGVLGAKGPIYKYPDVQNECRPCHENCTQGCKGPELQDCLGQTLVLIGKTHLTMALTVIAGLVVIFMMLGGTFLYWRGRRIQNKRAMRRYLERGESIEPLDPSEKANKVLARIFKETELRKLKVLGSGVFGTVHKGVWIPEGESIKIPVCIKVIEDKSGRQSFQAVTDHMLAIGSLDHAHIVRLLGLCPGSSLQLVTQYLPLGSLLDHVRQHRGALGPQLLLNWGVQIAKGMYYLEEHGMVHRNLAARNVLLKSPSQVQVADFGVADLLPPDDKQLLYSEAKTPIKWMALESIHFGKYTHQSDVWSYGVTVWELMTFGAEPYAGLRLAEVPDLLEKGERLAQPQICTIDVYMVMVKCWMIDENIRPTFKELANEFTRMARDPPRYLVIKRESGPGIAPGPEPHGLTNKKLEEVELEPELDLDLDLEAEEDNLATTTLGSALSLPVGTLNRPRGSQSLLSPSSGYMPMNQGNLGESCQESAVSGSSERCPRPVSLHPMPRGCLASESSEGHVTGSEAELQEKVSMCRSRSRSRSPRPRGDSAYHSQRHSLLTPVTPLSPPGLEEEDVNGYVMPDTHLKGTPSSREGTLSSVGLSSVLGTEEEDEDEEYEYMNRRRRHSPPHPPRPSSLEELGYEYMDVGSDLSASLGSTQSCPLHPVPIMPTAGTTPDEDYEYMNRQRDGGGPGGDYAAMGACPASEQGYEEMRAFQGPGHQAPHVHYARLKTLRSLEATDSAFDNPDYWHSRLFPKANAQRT
Procedure, shortened: as §1

JAK1~b (P23458) = molecular target: T3, JAK1~b (P23458) (Homo sapiens, UniProt P23458)
T3 construct: JAK1~b (P23458); purchased PamGene (PamChip PTK array, Upstream Kinase Analysis)
Procedure, shortened: as §1

ZAP70 (P43403) = molecular target: T4, ZAP70 (P43403) (Homo sapiens, UniProt P43403)
T4 construct: purchased PamGene (PamChip PTK array, Upstream Kinase Analysis)
T4 sequence (P43403 1-619): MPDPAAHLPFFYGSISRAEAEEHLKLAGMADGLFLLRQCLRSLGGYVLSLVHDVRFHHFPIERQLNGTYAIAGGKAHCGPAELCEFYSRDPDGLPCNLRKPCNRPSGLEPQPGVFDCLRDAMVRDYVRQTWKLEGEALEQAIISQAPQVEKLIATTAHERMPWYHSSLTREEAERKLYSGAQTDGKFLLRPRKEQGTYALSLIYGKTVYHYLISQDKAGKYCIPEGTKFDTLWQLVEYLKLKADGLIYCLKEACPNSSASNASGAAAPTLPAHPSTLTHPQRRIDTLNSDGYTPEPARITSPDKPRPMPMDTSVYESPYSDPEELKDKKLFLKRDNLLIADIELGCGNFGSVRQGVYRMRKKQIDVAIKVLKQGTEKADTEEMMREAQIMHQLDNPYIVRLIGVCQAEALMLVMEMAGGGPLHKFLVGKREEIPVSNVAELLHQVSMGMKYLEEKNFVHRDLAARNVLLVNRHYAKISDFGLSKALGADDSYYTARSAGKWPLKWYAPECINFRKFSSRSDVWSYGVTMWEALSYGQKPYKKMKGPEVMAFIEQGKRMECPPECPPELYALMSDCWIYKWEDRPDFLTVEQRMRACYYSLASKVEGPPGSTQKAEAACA
Procedure, shortened: as §1

HER4 (Q15303) = molecular target: T5, HER4 (Q15303) (Homo sapiens, UniProt Q15303)
T5 construct: purchased PamGene (PamChip PTK array, Upstream Kinase Analysis)
Procedure, shortened: as §1

Kit (P10721) = molecular target: T6, Kit (P10721) (Homo sapiens, UniProt P10721)
T6 construct: purchased PamGene (PamChip PTK array, Upstream Kinase Analysis)
Procedure, shortened: as §1

Tyk2 (P29597) = molecular target: T7, Tyk2 (P29597) (Homo sapiens, UniProt P29597)
T7 construct: purchased PamGene (PamChip PTK array, Upstream Kinase Analysis)
T7 sequence (P29597 whole entry): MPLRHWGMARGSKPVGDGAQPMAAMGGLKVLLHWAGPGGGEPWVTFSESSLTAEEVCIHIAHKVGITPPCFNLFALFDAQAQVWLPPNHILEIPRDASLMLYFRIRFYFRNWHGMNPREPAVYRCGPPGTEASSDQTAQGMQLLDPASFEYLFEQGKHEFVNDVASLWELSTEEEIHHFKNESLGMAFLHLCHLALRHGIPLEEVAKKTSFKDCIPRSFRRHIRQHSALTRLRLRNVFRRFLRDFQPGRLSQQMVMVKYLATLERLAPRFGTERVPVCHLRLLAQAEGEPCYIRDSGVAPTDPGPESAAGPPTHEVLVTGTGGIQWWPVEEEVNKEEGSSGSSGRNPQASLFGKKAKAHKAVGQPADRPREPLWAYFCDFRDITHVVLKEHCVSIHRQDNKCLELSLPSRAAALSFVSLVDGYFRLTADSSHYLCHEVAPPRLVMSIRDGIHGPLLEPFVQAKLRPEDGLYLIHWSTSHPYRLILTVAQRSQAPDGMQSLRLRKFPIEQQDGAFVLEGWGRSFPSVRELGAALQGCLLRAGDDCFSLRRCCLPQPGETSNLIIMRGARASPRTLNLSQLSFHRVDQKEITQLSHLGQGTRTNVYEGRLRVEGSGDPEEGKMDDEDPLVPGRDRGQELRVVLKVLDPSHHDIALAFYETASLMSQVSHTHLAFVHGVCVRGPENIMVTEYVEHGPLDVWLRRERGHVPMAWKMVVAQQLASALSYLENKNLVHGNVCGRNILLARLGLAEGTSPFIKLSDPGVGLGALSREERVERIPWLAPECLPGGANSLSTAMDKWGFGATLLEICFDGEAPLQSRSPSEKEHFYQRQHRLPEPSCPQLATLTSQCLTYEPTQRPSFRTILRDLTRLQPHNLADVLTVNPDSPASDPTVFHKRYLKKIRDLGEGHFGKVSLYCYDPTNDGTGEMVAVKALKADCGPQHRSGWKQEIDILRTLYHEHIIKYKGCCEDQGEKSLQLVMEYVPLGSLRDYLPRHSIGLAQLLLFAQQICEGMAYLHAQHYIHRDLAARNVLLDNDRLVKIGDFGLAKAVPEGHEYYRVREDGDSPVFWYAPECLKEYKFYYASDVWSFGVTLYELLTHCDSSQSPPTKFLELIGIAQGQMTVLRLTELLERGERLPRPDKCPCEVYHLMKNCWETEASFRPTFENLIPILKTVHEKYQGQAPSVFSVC
Procedure, shortened: as §1

FGFR1 (P11362) = molecular target: T8, FGFR1 (P11362) (Homo sapiens, UniProt P11362)
T8 construct: purchased PamGene (PamChip PTK array, Upstream Kinase Analysis)
T8 sequence (P11362 22-822): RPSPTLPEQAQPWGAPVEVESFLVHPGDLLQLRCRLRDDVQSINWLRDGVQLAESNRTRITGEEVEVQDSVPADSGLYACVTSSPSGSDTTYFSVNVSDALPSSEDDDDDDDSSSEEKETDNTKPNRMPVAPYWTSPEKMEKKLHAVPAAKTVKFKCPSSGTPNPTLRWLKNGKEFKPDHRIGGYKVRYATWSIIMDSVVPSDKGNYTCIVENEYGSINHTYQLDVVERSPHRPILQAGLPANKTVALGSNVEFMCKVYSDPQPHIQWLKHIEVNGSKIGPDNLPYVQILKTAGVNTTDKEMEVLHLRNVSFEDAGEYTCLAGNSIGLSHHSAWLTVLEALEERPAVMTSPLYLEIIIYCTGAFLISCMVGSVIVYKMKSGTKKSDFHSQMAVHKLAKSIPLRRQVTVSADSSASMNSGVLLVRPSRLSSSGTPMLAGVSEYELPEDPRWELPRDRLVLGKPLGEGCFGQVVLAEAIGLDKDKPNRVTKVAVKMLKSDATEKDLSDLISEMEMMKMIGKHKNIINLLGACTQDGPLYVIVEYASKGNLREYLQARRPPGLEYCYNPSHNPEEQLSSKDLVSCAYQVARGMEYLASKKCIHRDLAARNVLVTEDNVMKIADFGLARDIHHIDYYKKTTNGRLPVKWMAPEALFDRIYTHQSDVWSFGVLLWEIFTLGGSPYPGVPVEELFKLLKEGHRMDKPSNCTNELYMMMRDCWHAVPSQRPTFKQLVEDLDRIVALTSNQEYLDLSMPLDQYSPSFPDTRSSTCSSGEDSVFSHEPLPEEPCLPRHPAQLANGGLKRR
Procedure, shortened: as §1

FmS/CSFR (P07333) = molecular target: T9, FmS/CSFR (P07333) (Homo sapiens, UniProt P07333)
T9 construct: purchased PamGene (PamChip PTK array, Upstream Kinase Analysis)
Procedure, shortened: as §1

HER2 (P04626) = molecular target: T10, HER2 (P04626) (Homo sapiens, UniProt P04626)
T10 construct: purchased PamGene (PamChip PTK array, Upstream Kinase Analysis)
T10 sequence (P04626 23-1255): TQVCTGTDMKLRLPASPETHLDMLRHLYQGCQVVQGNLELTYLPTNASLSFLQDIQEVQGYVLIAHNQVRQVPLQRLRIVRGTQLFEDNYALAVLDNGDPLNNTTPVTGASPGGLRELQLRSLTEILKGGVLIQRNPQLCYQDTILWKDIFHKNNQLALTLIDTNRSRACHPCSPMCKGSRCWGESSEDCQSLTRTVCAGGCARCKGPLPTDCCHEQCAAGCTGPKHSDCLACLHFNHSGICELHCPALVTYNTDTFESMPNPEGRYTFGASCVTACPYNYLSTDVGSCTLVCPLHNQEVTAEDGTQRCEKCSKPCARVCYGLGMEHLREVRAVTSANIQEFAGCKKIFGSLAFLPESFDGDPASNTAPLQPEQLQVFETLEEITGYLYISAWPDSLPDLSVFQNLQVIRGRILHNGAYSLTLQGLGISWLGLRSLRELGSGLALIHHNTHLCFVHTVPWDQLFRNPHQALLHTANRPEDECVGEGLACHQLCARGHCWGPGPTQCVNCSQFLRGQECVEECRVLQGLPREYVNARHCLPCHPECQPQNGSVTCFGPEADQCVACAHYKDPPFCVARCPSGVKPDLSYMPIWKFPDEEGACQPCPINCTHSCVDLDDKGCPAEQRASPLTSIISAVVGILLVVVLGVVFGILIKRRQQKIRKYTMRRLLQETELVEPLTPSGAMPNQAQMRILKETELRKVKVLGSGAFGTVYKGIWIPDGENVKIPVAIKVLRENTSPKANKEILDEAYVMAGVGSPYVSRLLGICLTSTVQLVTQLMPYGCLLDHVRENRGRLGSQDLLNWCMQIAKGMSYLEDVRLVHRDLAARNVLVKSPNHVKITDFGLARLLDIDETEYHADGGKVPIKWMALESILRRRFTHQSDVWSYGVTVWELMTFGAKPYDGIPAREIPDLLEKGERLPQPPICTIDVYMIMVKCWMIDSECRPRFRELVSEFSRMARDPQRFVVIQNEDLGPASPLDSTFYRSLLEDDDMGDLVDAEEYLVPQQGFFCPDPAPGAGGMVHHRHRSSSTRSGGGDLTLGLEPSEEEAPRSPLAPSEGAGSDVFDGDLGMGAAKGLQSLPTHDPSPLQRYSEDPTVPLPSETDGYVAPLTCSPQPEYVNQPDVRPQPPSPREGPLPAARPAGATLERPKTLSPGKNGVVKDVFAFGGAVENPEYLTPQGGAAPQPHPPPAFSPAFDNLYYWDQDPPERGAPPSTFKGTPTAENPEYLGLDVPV
Procedure, shortened: as §1

InSR (P06213) = molecular target: T11, InSR (P06213) (Homo sapiens, UniProt P06213)
T11 construct: purchased PamGene (PamChip PTK array, Upstream Kinase Analysis)
Procedure, shortened: as §1

COc1ccc(/C=C2\N=C(C)N(c3ccc(CC(=O)NCc4ccccc4)cc3)C2=O)cc1 [Compound 4c, (Z)-N-Benzyl-2-(4-(4-(4-methoxybenzylidene)-2-methyl-5-oxo-4,5-dihydro-1H-imidazol-1-yl)phenyl)acetamide]
Mean Final score (Kinase score) (Yes (P07947)): 1.8671
Mean Kinase Statistic (Yes (P07947)): -0.9897
Mean Significance Score (Yes (P07947)): 1.824
Mean Specificity Score (Yes (P07947)): 0.04992
Mean Final score (Kinase score) (HER3 (P21860)): 2.412
Mean Kinase Statistic (HER3 (P21860)): -1.214
Mean Significance Score (HER3 (P21860)): 2.014
Mean Specificity Score (HER3 (P21860)): 0.4279
Mean Significance Score (JAK1~b (P23458)): 1.955
Mean Specificity Score (JAK1~b (P23458)): 1.609
Mean Final score (Kinase score) (JAK1~b (P23458); listed as KIM-161): 3.51 and 3.514
Mean Final score (Kinase score) (ZAP70 (P43403)): 1.771
Mean Kinase Statistic (ZAP70 (P43403)): -1.015
Mean Significance Score (ZAP70 (P43403)): 1.836
Mean Specificity Score (ZAP70 (P43403)): 0.009048
Mean Final score (Kinase score) (HER4 (Q15303)): 2.227
Mean Kinase Statistic (HER4 (Q15303)): -1.109
Mean Significance Score (HER4 (Q15303)): 2.048
Mean Specificity Score (HER4 (Q15303)): 0.2042
Mean Final score (Kinase score) (Kit (P10721)): 2.581
Mean Kinase Statistic (Kit (P10721)): -1.291
Mean Significance Score (Kit (P10721)): 2.048
Mean Specificity Score (Kit (P10721)): 0.5837
Mean Final score (Kinase score) (Tyk2 (P29597)): 2.4437
Mean Kinase Statistic (Tyk2 (P29597)): -1.248
Mean Significance Score (Tyk2 (P29597)): 2.048
Mean Specificity Score (Tyk2 (P29597)): 0.3814
Mean Final score (Kinase score) (FGFR1 (P11362)): 1.92
Mean Kinase Statistic (FGFR1 (P11362)): -0.994
Mean Significance Score (FGFR1 (P11362)): 1.619
Mean Specificity Score (FGFR1 (P11362)): 0.1511
Mean Final score (Kinase score) (FmS/CSFR (P07333)): 2.549
Mean Kinase Statistic (FmS/CSFR (P07333)): -1.225
Mean Significance Score (FmS/CSFR (P07333)): 2.048
Mean Specificity Score (FmS/CSFR (P07333)): 0.582
Mean Final score (Kinase score) (HER2 (P04626)): 2.103
Mean Kinase Statistic (HER2 (P04626)): -1.031
Mean Significance Score (HER2 (P04626)): 1.88
Mean Specificity Score (HER2 (P04626)): 0.08906
Mean Final score (Kinase score) (InSR (P06213)): 2.117
Mean Kinase Statistic (InSR (P06213)): -0.9506
Mean Significance Score (InSR (P06213)): 2.048
Mean Specificity Score (InSR (P06213)): 0.02144
